Data taken from patent US20230331803A1, “CO-AGONISTS OF THE GLP-1 AND AMYLIN RECEPTORS” (priority 2020, published 2023).
Read-outs that look alike come from different tables or passages of the source. Starred links: 1 amine or outer side, 2 acyl side, 3 side chain; linkers in the order of their positions; H or OH if unused. Positions of bridges follow the written chain, without caps; N, C: chain ends. Non-standard residues stand in square brackets, D forms with d. Groups on a side chain read outwards from the residue. *: point of attachment. C20 diacid = O=C(O)CCCCCCCCCCCCCCCCCCC(=O)*; C18 diacid = O=C(O)CCCCCCCCCCCCCCCCC(=O)*; C16 diacid = O=C(O)CCCCCCCCCCCCCCC(=O)*; γGlu = O=C(O)[C@H](CCC(=O)[*:2])N[*:1]; AEEA = NCCOCCOCC(=O)O; Aib = CC(C)(N)C(=O)O

What was measured:
human GLP-1 receptor = biological target: T1, human GLP-1 receptor (Homo sapiens, UniProt P43220); experiment: Human GLP-1 receptor in vitro potency assay (CRE-luciferase reporter, BHK cells); assay type: cell-based
T1 construct: expressed in transfected cells; host or cells: BHK (Baby Hamster Kidney) cells, clone BHK 467-12A KZ-10, stably transfected, with CRE-luciferase reporter
T1 sequence (P43220 24-463): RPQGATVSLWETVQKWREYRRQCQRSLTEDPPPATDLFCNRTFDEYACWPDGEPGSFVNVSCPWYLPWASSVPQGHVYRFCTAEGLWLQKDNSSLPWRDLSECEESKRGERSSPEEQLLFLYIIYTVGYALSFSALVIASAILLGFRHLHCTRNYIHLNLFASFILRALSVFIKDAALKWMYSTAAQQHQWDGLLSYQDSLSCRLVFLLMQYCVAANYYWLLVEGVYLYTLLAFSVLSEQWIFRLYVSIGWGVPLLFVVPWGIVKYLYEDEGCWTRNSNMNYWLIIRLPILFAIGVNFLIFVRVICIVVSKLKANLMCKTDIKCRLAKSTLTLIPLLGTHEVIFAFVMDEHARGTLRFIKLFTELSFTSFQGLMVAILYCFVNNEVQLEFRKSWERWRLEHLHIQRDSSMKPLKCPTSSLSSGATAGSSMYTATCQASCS
Description: It is thus possible to measure GLP-1 receptor activity using a CRE-luciferase reporter gene introduced into Baby Hamster Kidney (BHK) cells co-expressing the GLP-1 receptor.
Cells were aliquoted and stored at -180° C. until use.
Plates were sealed and incubated at room temperature with gentle shaking for 30 minutes while protected from light. Luminescence was detected on a luminescence plate reader e.g. a Synergy 2 (BioTek).

[1] = biological target: T2, human amylin receptor (hAmyR3) (Homo sapiens, UniProt O60896+P30988); experiment: Human amylin receptor in vitro potency assay (CRE-luciferase reporter, BHK cells); assay type: cell-based;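 also: BHK cells expressing human calcitonin receptor plus RAMP3 (amylin-3 receptor) with a CRE-luciferase reporter, agonist activity read as luminescence from cAMP-driven transcription, 7-point serial dilutions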
T2 construct: host or cells: BHK cells (Hollex-1 line: human calcitonin receptor (a) + CRE-Luc), further transfected with human RAMP3
T2 sequence (P30988 25-474): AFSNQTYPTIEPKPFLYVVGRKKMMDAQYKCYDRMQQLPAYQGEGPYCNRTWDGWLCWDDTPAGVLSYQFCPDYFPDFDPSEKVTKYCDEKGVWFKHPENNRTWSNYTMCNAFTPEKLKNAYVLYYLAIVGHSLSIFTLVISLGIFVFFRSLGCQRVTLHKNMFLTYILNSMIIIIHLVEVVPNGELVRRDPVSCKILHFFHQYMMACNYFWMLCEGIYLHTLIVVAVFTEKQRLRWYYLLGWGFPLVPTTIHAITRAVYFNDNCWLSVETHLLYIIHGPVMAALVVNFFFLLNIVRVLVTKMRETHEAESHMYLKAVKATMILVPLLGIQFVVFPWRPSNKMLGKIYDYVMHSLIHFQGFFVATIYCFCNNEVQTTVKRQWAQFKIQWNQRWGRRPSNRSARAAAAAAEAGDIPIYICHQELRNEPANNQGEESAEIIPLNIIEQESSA
T2 sequence (O60896 24-148): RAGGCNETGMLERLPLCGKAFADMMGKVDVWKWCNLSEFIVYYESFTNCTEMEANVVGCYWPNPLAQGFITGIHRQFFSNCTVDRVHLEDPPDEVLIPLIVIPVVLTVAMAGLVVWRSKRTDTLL

[2] = Table 4a, BHK hAmyR3/CRE-Luc cells, 3 hours, read-out: Human AmyR3 potency [EC50 (pM)]

EC50 [1, 2] | Compound | EC50 (human GLP-1 receptor) | EC50 [1] | Ability to agonise the amylin receptor, in words ([1]; Tables 4a-4c)
– | CC[C@H](C)[C@H](NC(=O)[C@H](Cc1ccccc1)NC(=O)[C@H](CCC(=O)O)NC(=O)[C@H](CCCCNC(=O)COCCOCCNC(=O)COCCOCCNC(=O)CC[C@H](NC(=O)CCCCCCCCCCCCCCCCC(=O)O)C(=O)O)NC(=O)[C@H](C)NC(=O)[C@H](C)NC(=O)[C@H](CCC(N)=O)NC(=O)CNC(=O)[C@H](CCC(=O)O)NC(=O)[C@H](CC(C)C)NC(=O)[C@H](Cc1ccc(O)cc1)NC(=O)[C@H](CO)NC(=O)[C@H](CO)NC(=O)[C@@H](NC(=O)[C@H](CC(=O)O)NC(=O)[C@H](CO)NC(=O)[C@@H](NC(=O)[C@H](Cc1ccccc1)NC(=O)[C@@H](NC(=O)CNC(=O)[C@H](CCC(=O)O)NC(=O)C(C)(C)NC(=O)[C@@H](N)Cc1c[nH]cn1)[C@@H](C)O)[C@@H](C)O)C(C)C)C(=O)N[C@@H](C)C(=O)N[C@@H](Cc1c[nH]c2ccccc12)C(=O)N[C@@H](CC(C)C)C(=O)N[C@H](C(=O)N[C@@H](CCCNC(=N)N)C(=O)NCC(=O)N[C@@H](CCCNC(=N)N)C(=O)NCC(=O)N[C@@H](CCCCNC(=O)COCCOCCNC(=O)COCCOCCNC(=O)CC[C@H](NC(=O)CCCCCCCCCCCCCCCCC(=O)O)C(=O)O)C(=O)N[C@@H](CCC(N)=O)C(=O)N[C@@H](CCC(=O)O)C(=O)N1CCC[C@H]1C(=O)NCC(=O)N[C@@H](CCC(N)=O)C(=O)N[C@@H](CCC(=O)O)C(=O)N1CCC[C@H]1C(=O)N[C@@H](CCC(=O)O)C(=O)N[C@@H](C)C(=O)N[C@@H](CO)C(=O)N[C@@H](CCC(=O)O)C(=O)N[C@@H](CC(C)C)C(=O)N[C@@H](CO)C(=O)N[C@H](C(=O)N[C@@H](C)C(=O)N[C@@H](C)C(=O)N[C@@H](CC(C)C)C(=O)NCC(=O)N[C@@H](CCCNC(=N)N)C(=O)N[C@@H](CC(C)C)C(=O)N[C@@H](CO)C(=O)N[C@@H](C)C(=O)N[C@@H](CCC(=O)O)C(=O)N[C@@H](CC(C)C)C(=O)N[C@@H](Cc1c[nH]cn1)C(=O)N[C@@H](CCC(=O)O)C(=O)N[C@@H](CC(C)C)C(=O)N[C@@H](C)C(=O)N[C@H](C(=O)N[C@@H](CC(C)C)C(=O)N1CCC[C@H]1C(=O)N[C@@H](CCCNC(=N)N)C(=O)N[C@H](C(=O)N[C@@H](CCC(=O)O)C(=O)N[C@H](C(=O)NCC(=O)N[C@@H](CO)C(=O)NCC(=O)N[C@@H](CO)C(=O)N1CCC[C@H]1C(N)=O)[C@@H](C)O)[C@@H](C)O)[C@@H](C)O)[C@@H](C)O)C(C)C [Compound 0056] | 0.0414 nM | 120 pM | –
– | CC[C@H](C)[C@H](NC(=O)[C@H](Cc1ccccc1)NC(=O)[C@H](CCC(=O)O)NC(=O)[C@H](CCCCNC(=O)COCCOCCNC(=O)COCCOCCNC(=O)CC[C@H](NC(=O)CCCCCCCCCCCCCCCCC(=O)O)C(=O)O)NC(=O)[C@H](C)NC(=O)[C@H](C)NC(=O)[C@H](CCC(N)=O)NC(=O)CNC(=O)[C@H](CCC(=O)O)NC(=O)[C@H](CC(C)C)NC(=O)[C@H](Cc1ccc(O)cc1)NC(=O)[C@H](CO)NC(=O)[C@H](CO)NC(=O)[C@@H](NC(=O)[C@H](CC(=O)O)NC(=O)[C@H](CO)NC(=O)[C@@H](NC(=O)[C@H](Cc1ccccc1)NC(=O)[C@@H](NC(=O)CNC(=O)[C@H](CCC(=O)O)NC(=O)C(C)(C)NC(=O)[C@@H](N)Cc1c[nH]cn1)[C@@H](C)O)[C@@H](C)O)C(C)C)C(=O)N[C@@H](C)C(=O)N[C@@H](Cc1c[nH]c2ccccc12)C(=O)N[C@@H](CC(C)C)C(=O)N[C@H](C(=O)N[C@@H](CCCNC(=N)N)C(=O)NCC(=O)N[C@@H](CCCNC(=N)N)C(=O)NCC(=O)NCC(=O)N[C@@H](CCC(N)=O)C(=O)N[C@@H](CCC(=O)O)C(=O)N[C@@H](CCCCNC(=O)COCCOCCNC(=O)COCCOCCNC(=O)CC[C@H](NC(=O)CCCCCCCCCCCCCCCCC(=O)O)C(=O)O)C(=O)NCC(=O)N[C@@H](CCC(N)=O)C(=O)N[C@@H](CCC(=O)O)C(=O)N1CCC[C@H]1C(=O)N[C@@H](CCC(=O)O)C(=O)N[C@@H](C)C(=O)N[C@@H](CO)C(=O)N[C@@H](CCC(=O)O)C(=O)N[C@@H](CC(C)C)C(=O)N[C@@H](CO)C(=O)N[C@H](C(=O)N[C@@H](C)C(=O)N[C@@H](C)C(=O)N[C@@H](CC(C)C)C(=O)NCC(=O)N[C@@H](CCCNC(=N)N)C(=O)N[C@@H](CC(C)C)C(=O)N[C@@H](CO)C(=O)N[C@@H](C)C(=O)N[C@@H](CCC(=O)O)C(=O)N[C@@H](CC(C)C)C(=O)N[C@@H](Cc1c[nH]cn1)C(=O)N[C@@H](CCC(=O)O)C(=O)N[C@@H](CC(C)C)C(=O)N[C@@H](C)C(=O)N[C@H](C(=O)N[C@@H](CC(C)C)C(=O)N1CCC[C@H]1C(=O)N[C@@H](CCCNC(=N)N)C(=O)N[C@H](C(=O)N[C@@H](CCC(=O)O)C(=O)N[C@H](C(=O)NCC(=O)N[C@@H](CO)C(=O)NCC(=O)N[C@@H](CO)C(=O)N1CCC[C@H]1C(N)=O)[C@@H](C)O)[C@@H](C)O)[C@@H](C)O)[C@@H](C)O)C(C)C [Compound 0057] | 0.059 nM | 165 pM | –
– | CC[C@H](C)[C@H](NC(=O)[C@H](Cc1ccccc1)NC(=O)[C@H](CCC(=O)O)NC(=O)[C@H](CCCCNC(=O)COCCOCCNC(=O)COCCOCCNC(=O)CC[C@H](NC(=O)CCCCCCCCCCCCCCCCC(=O)O)C(=O)O)NC(=O)[C@H](C)NC(=O)[C@H](C)NC(=O)[C@H](CCC(N)=O)NC(=O)CNC(=O)[C@H](CCC(=O)O)NC(=O)[C@H](CC(C)C)NC(=O)[C@H](Cc1ccc(O)cc1)NC(=O)[C@H](CO)NC(=O)[C@H](CO)NC(=O)[C@@H](NC(=O)[C@H](CC(=O)O)NC(=O)[C@H](CO)NC(=O)[C@@H](NC(=O)[C@H](Cc1ccccc1)NC(=O)[C@@H](NC(=O)CNC(=O)[C@H](CCC(=O)O)NC(=O)C(C)(C)NC(=O)[C@@H](N)Cc1c[nH]cn1)[C@@H](C)O)[C@@H](C)O)C(C)C)C(=O)N[C@@H](C)C(=O)N[C@@H](Cc1c[nH]c2ccccc12)C(=O)N[C@@H](CC(C)C)C(=O)N[C@H](C(=O)N[C@@H](CCCNC(=N)N)C(=O)NCC(=O)N[C@@H](CCCNC(=N)N)C(=O)NCC(=O)NCC(=O)N[C@@H](CCC(N)=O)C(=O)N[C@@H](CCC(=O)O)C(=O)N1CCC[C@H]1C(=O)NCC(=O)N[C@@H](CCC(N)=O)C(=O)N[C@@H](CCC(=O)O)C(=O)N1CCC[C@H]1C(=O)N[C@@H](CCCCNC(=O)COCCOCCNC(=O)COCCOCCNC(=O)CC[C@H](NC(=O)CCCCCCCCCCCCCCCCC(=O)O)C(=O)O)C(=O)N[C@@H](CCC(=O)O)C(=O)N[C@@H](C)C(=O)N[C@@H](CO)C(=O)N[C@@H](CCC(=O)O)C(=O)N[C@@H](CC(C)C)C(=O)N[C@@H](CO)C(=O)N[C@H](C(=O)N[C@@H](C)C(=O)N[C@@H](C)C(=O)N[C@@H](CC(C)C)C(=O)NCC(=O)N[C@@H](CCCNC(=N)N)C(=O)N[C@@H](CC(C)C)C(=O)N[C@@H](CO)C(=O)N[C@@H](C)C(=O)N[C@@H](CCC(=O)O)C(=O)N[C@@H](CC(C)C)C(=O)N[C@@H](Cc1c[nH]cn1)C(=O)N[C@@H](CCC(=O)O)C(=O)N[C@@H](CC(C)C)C(=O)N[C@@H](C)C(=O)N[C@H](C(=O)N[C@@H](CC(C)C)C(=O)N1CCC[C@H]1C(=O)N[C@@H](CCCNC(=N)N)C(=O)N[C@H](C(=O)N[C@@H](CCC(=O)O)C(=O)N[C@H](C(=O)NCC(=O)N[C@@H](CO)C(=O)NCC(=O)N[C@@H](CO)C(=O)N1CCC[C@H]1C(N)=O)[C@@H](C)O)[C@@H](C)O)[C@@H](C)O)[C@@H](C)O)C(C)C [Compound 0071] | 0.0694 nM | 159 pM | –
28.4 pM | CC[C@H](C)[C@H](NC(=O)[C@H](Cc1ccccc1)NC(=O)[C@H](CCCCNC(=O)COCCOCCNC(=O)COCCOCCNC(=O)CC[C@H](NC(=O)CCCCCCCCCCCCCCCCC(=O)O)C(=O)O)NC(=O)[C@H](CCCNC(=N)N)NC(=O)[C@H](C)NC(=O)[C@H](C)NC(=O)[C@H](CCC(N)=O)NC(=O)[C@H](CCC(=O)O)NC(=O)[C@H](CCC(=O)O)NC(=O)[C@H](CC(C)C)NC(=O)[C@H](Cc1ccc(O)cc1)NC(=O)[C@H](CO)NC(=O)[C@H](CO)NC(=O)[C@@H](NC(=O)[C@H](CC(=O)O)NC(=O)[C@H](CO)NC(=O)[C@@H](NC(=O)[C@H](Cc1ccccc1)NC(=O)[C@@H](NC(=O)CNC(=O)[C@H](CCC(=O)O)NC(=O)C(C)(C)NC(=O)[C@@H](N)Cc1c[nH]cn1)[C@@H](C)O)[C@@H](C)O)C(C)C)C(=O)N[C@@H](CCC(=O)O)C(=O)N[C@@H](Cc1c[nH]c2ccccc12)C(=O)N[C@@H](CC(C)C)C(=O)N[C@H](C(=O)N[C@@H](CCCNC(=N)N)C(=O)NCC(=O)N[C@@H](CCCCNC(=O)COCCOCCNC(=O)COCCOCCNC(=O)CC[C@H](NC(=O)CCCCCCCCCCCCCCCCC(=O)O)C(=O)O)C(=O)NCC(=O)N[C@@H](CCC(=O)O)C(=O)NCC(=O)N[C@@H](CCC(N)=O)C(=O)N[C@@H](CCC(=O)O)C(=O)N1CCC[C@H]1C(=O)NCC(=O)NCC(=O)N[C@@H](C)C(=O)N[C@@H](CO)C(=O)N[C@@H](CCC(=O)O)C(=O)N[C@@H](CC(C)C)C(=O)N[C@@H](CO)C(=O)N[C@H](C(=O)N[C@@H](C)C(=O)N[C@@H](C)C(=O)N[C@@H](CC(C)C)C(=O)NCC(=O)N[C@@H](CCCNC(=N)N)C(=O)N[C@@H](CC(C)C)C(=O)N[C@@H](CO)C(=O)N[C@@H](C)C(=O)N[C@@H](CCC(=O)O)C(=O)N[C@@H](CC(C)C)C(=O)N[C@@H](Cc1c[nH]cn1)C(=O)N[C@@H](CCC(=O)O)C(=O)N[C@@H](CC(C)C)C(=O)N[C@@H](C)C(=O)N[C@H](C(=O)N[C@@H](CC(C)C)C(=O)N1CCC[C@H]1C(=O)N[C@@H](CCCNC(=N)N)C(=O)N[C@H](C(=O)N[C@@H](CCC(=O)O)C(=O)N[C@H](C(=O)NCC(=O)N[C@@H](CO)C(=O)NCC(=O)N[C@@H](CO)C(=O)N1CCC[C@H]1C(N)=O)[C@@H](C)O)[C@@H](C)O)[C@@H](C)O)[C@@H](C)O)C(C)C [Compound 0106] | – | – | –
8.5 pM | H-H[Aib]EGTFTSDVSSYLEEQAARK([AEEA-AEEA-γGlu-γGlu-γGlu-C20 diacid])FIEWLVRGRQEAASELSTAALGRLSAELHQLATLPRTETGSGSP-NH2 [Compound 0636] | – | – | –
– | H-H[Aib]EGTFTSDVSSYLEGQAAK([AEEA-AEEA-γGlu-C18 diacid])EFIAWLVRGRGGQEPGQEPK([γGlu-γGlu-C20 diacid])CNTATCATQRLADFLRHSSPNFGAIPSSTNVGSRTY-NH2 (disulfide 41-46) [Comparator compound 0668, reference compound] | – | – | do not activate the amylin receptor
60.9 pM | H[Aib]EGTFTSDVSSYLEEQAARK([AEEA-AEEA-γGlu-C16 diacid])FIAWLVRGRGGK([AEEA-AEEA-γGlu-C16 diacid])EASELSTAALGRLSAELHELATLPRTETGSGSP-NH2 [Compound 0074] | – | – | –
